Where two headings read alike, the source gives them in different places.
Assays:
stromelysin-1 (MMP-3) = stromelysin-1 (MMP-3) (Homo sapiens, UniProt P08254); assay: Matrix Metalloprotease Inhibition, Stromelysin-1; format: biochemical; conditions: 5 nM enzyme, 10 μM fluorogenic substrate, pH=7.6; approximate IC50 equivalent to Ki ([S]<<Km)
Procedure: (§1) The potency of compounds of the invention as inhibitors of 19 kD truncated collagenase-1 (MMP-1), 20 kD truncated collagenase-3 (MMP-13), stromelysin-1 (MMP-3), and 50 kD truncated gelatinase B (MMP-9) is determined according to the general procedure of Bickett et. al. (Anal. Biochem. 1993, 212, 58-64) using the fluorogenic substrate, DNP-Pro-Cha-Gly-Cys(Me)-His-Ala-Lys(NMA)--NH2 (DNP=2,4-dinitrophenyl,NMA=N-methylanthranilic acid). Assays are conducted in a total volume of 0.180 mL assay buffer (200 mM NaCl, 50 mM Tris, 5 mM CaCl2, 10 μM ZnSO4, 0.005% Brij 35, pH=7.6) in each well of a black 96 well microtiter plate. 19 kD collagenase-1, 20 kD collagenase-3, stromelysin-1,and 50 kD gelatinase B concentrations are adjusted to 500 pM, 30 pM, 5 nM, and 100 pM, respectively. A dose response is generated using an eleven-point, 3-fold serial dilution with initial starting test compound concentrations of 100, 10, or 1 μM. Inhibitor and enzyme reactions are incubated for 30 minutes at ambient temperature and then initiated with 10 μM fluorogenic substrate (above). The product formation is measured at Excitation343 /Emission450 nm after 45-180 minutes using a Fluostar SLT fluorescence analyzer. Percent inhibition is calculated at each inhibitor concentration and the data were plotted using standard curve fitting programs. Approximate IC50 values were determined from these curves. Assays were run at low substrate concentration ([S]<<Km) such that the calculated IC50 values are equivalent to Ki within experimental error.

[1] = target: T1, TNFα converting enzyme (membrane preparation from MonoMac 6 cells) (Homo sapiens, UniProt P78536); assay: TNFα Converting Enzyme Inhibition; format: biochemical
T1 construct: Membrane preparation from MonoMac 6 cells; endogenous in cells; host or cells: MonoMac 6 cells (membrane preparation, subfractionated extract)
Procedure: The potency of compounds of the invention as inhibitors of cell-free tumor necrosis factor α converting enzyme is determined as follows: Membrane preparation from MonoMac 6 cells (subfractionated extract from equivalent of 6×10^6 cells per 60 μl assay) is incubated for 1 hr with 200 nM radiolabeled substrate (Biotin-SPLAQAVRSSSRT-(^3 H)P-S--NH2, 4.1 Ci/mmol, ref #0935 from Zeneca) in 10 mM hepes buffer, 250 mM sucrose, pH=7.5. The reaction is quenched by addition of streptavidin SPA beads (Amersham RPNQ0006), with excess binding capacity relative to substrate, suspended in 250 mM EDTA, pH=8.0. Binding is complete within 15 minutes and plates are counted in a Wallac 1450 Microbeta liquid scintillation counter. Percent inhibition is calculated at each inhibitor concentration and the data were plotted using standard curve fitting programs. Approximate IC50 values were determined from these curves. Assays were run at low substrate concentration ([S]<<Km) such that the calculated IC50 values are equivalent to Ki within experimental error.

[2] = target: 50 kD truncated gelatinase B (MMP-9); assay: Matrix Metalloprotease Inhibition, Gelatinase B; format: biochemical; conditions: 100 pM enzyme, 10 μM fluorogenic substrate, pH=7.6; approximate IC50 equivalent to Ki ([S]<<Km)
Procedure: as §1

[3] = target: 20 kD truncated collagenase-3 (MMP-13); assay: Matrix Metalloprotease Inhibition, Collagenase-3; format: biochemical; conditions: 30 pM enzyme, 10 μM fluorogenic substrate, pH=7.6; approximate IC50 equivalent to Ki ([S]<<Km)
Procedure: as §1

[4] = target: T2, 19 kD truncated collagenase-1 (MMP-1) (Homo sapiens, UniProt P03956); assay: Matrix Metalloprotease Inhibition, Collagenase-1; format: biochemical; conditions: 500 pM enzyme, 10 μM fluorogenic substrate, pH=7.6; approximate IC50 equivalent to Ki ([S]<<Km)
T2 construct: 19 kD truncated collagenase-1 (MMP-1)
T2 sequence (P03956 101-269 limits assumed): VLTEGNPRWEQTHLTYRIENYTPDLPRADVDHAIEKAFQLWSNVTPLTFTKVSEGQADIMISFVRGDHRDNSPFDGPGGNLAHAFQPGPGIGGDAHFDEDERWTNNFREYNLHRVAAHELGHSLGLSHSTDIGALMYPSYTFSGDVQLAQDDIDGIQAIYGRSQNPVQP
Procedure: as §1

B16B6 Murine Melanoma = assay: Xenograft in vivo assay, B16B6; conditions: female NU/NU mice, p.o. once a day, 14 days, 30 mg/kg and 90 mg/kg
Procedure: (§2) Female NU/NU mice with a weight of 21±2 g are weighed and used. Control and test animals are injected subcutaneously in the axillary region with a suspension of 2×10^6 viable tumor cells in 200 uL in PBS±matrigel on day 0. Tumors are allowed to grow for 10 to 14 days prior to drug administration. Doses of test drug are given on a mg/kg basis according to the mean body weight for each cage. For each drug, two doses are used, 30 mg/kg and 90 mg/kg, and are administered by p.o. route once a day over a 14 day time span. Tumor weight is calculated from two perpendicular caliper measurements of the tumor using the formula, tumor weight=length×width2.div.2 in millimeters. For each animal, tumor weight is monitored over the course of the experiment, and expressed as the percent of the tumor's weight. For each group, the mean increase in tumor weight over the course of the experiment is calculated (tumor weightday […]-tumor weightday 14=≈tumor weight) and the results expressed as percent inhibition of tumor growth with respect to the control group [1-(≈tumor weight treated group/(≈tumor weight control group)]×100. Results are presented in Table 4. The criterion for antitumor activity is 25% inhibition of tumor growth after 2 weeks of dosing (day 14).

[5] = tested on: TNFα release from LPS/PMA-stimulated MonoMac 6 cells; assay: Cell-Based TNFα Release Inhibition; conditions: Homo sapiens, MONO-MAC-6, LPS/PMA stimulation, 2 hours, 37° C.
Procedure: The potency of compounds of the invention as inhibitors of release of soluble tumor necrosis factor α from stimulated monocytes in vitro is determined as follows: LPS/PMA solution for assay consisting of a) 4 μL of 5 mg/mL LPS stock and b) 6 μL of 10 mg/mL PMA stock are added to 500 μL of medium (RPMI 1640 (Gibco)+10% FBS+penicillin/streptomycin+1-glutamine). This solution is then diluted 1:1000 (40 ng/mL and 120 ng/mL) for use later in the assay. Compounds (10 mM) are serially diluted 1:3 in DMSO. Compound dilutions (20 μL) are added to a sterile round bottom 96 well plate (20 μL:200 μL total volume=1:10 for final concentrations of […] for test compounds). MonoMac 6 cell suspension (130 μL, 1.5×10^6 cells/mL) is then added to each well resulting in 2×10^5 cells/well. LPS/PMA (50 μL) solution is then added to each well to begin stimulation (final concentrations of […] and 30 ng/mL respectively). The plate is incubated at 37° C. for 2 hours then spun at 1,500 rpm for 3 minutes to pellet cells. The supernatant (120 μL/well) is removed to a new round bottom 96 well plate and diluted 1:10 in PBS. Then, 20 μL of the supernatant is transferred to a Cistron TNFα ELISA plate and processed according to the manufacturer's instructions to quantitate levels of TNFα. […]

[6] = tested on: Lewis Lung M27 Murine Lung; assay: Xenograft in vivo assay, Lewis Lung M27; conditions: female NU/NU mice, p.o. once a day, 14 days, 30 mg/kg and 90 mg/kg
Procedure: as §2

[7] = tested on: Mat Ly Lu Murine Prostate; assay: Xenograft in vivo assay, Mat Ly Lu; conditions: female NU/NU mice, p.o. once a day, 14 days, 30 mg/kg and 90 mg/kg
Procedure: as §2

SW 620 Human Colon = assay: Xenograft in vivo assay, SW 620; conditions: female NU/NU mice, p.o. once a day, 14 days, 30 mg/kg and 90 mg/kg
Procedure: as §2

A549 Human Lung = assay: Xenograft in vivo assay, A549; conditions: female NU/NU mice, p.o. once a day, 14 days, 30 mg/kg and 90 mg/kg
Procedure: as §2

Colo 205 Human Colon = assay: Xenograft in vivo assay, Colo 205; conditions: female NU/NU mice, p.o. once a day, 14 days, 30 mg/kg and 90 mg/kg
Procedure: as §2

[8] = MonoMac 6 membrane preparation, 200 nM radiolabeled substrate, pH=7.5, 1 hr, approximate IC50 equivalent to Ki ([S]<<Km), read-out: TNFα Converting Enzyme Ki

Chain of stromelysin-1 (MMP-3) (P08254 100-477): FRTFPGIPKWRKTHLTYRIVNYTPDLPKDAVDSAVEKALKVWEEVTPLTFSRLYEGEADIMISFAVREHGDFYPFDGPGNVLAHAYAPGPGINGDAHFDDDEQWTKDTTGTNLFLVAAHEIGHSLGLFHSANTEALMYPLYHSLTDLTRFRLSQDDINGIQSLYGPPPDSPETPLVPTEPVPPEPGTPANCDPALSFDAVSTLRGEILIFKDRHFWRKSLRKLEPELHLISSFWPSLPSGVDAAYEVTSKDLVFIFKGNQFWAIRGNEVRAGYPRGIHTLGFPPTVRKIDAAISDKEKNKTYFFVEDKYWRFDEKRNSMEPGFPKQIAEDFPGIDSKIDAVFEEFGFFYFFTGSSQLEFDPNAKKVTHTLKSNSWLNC
T1 sequence (P78536 215-824): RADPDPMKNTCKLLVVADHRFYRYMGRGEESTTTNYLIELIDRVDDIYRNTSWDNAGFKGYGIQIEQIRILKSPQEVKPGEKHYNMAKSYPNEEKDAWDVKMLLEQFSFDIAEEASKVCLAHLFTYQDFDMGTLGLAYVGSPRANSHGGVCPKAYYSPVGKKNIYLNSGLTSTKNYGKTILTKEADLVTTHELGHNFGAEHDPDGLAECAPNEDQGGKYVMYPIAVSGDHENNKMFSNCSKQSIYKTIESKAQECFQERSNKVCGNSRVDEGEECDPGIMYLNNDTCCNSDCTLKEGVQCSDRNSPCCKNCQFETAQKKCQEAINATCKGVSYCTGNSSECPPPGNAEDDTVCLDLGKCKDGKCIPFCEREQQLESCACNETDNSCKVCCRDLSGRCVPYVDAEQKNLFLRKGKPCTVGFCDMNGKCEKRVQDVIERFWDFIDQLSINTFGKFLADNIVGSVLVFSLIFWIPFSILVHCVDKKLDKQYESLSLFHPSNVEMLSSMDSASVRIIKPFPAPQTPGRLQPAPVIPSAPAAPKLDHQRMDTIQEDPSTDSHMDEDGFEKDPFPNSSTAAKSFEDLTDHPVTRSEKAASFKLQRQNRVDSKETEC

## CNC(=O)[C@@H](NC(=O)[C@H](CCCCCc1ccccc1)[C@H](C)N(O)C=O)C(C)(C)C [Example 61, (2R,3S)-3-(Formylhydroxyamino)-2-(5-phenyl-1-pentyl)butanoic Acid [(1S)-2,2-Dimethyl-(1-methylcarbamoyl)-1-propyl]amide]
stromelysin-1 (MMP-3)
  Ki: 5 to 50 nM
[1]; [8]
  Ki: > 500 nM
[2]
  Ki: 0.5 to 5 nM
[3]
  Ki: 0.5 to 5 nM
[4]
  Ki: 50 to 500 nM

## CNC(=O)[C@@H](NC(=O)[C@H](CCCc1cccs1)[C@H](C)N(O)C=O)C(C)(C)C [Example 3]
stromelysin-1 (MMP-3)
  Ki: 50 to 500 nM
[1]; [8]
  Ki: 50 to 500 nM
[2]
  Ki: 0.5 to 5 nM
[3]
  Ki: 0.001 to 0.5 nM
[4]
  Ki: 5 to 50 nM

## CNC(=O)[C@@H](NC(=O)[C@H](CCCc1ccc(Cl)cc1)[C@H](C)N(O)C=O)C(C)(C)C [Example 2]
stromelysin-1 (MMP-3)
  Ki: 5 to 50 nM
[1]; [8]
  Ki: > 500 nM
[2]
  Ki: 0.001 to 0.5 nM
[3]
  Ki: 0.001 to 0.5 nM
[4]
  Ki: 5 to 50 nM

## CNC(=O)[C@@H](NC(=O)[C@H](CCCc1ccccc1)[C@H](C)N(O)C=O)C(C)(C)C [Example 1]
stromelysin-1 (MMP-3)
  Ki: 50 to 500 nM
B16B6 Murine Melanoma
  percent inhibition of tumor growth: + (26-50% Inhibition)
[5]
  IC50: > 500 nM
[6]
  percent inhibition of tumor growth: + (26-50% Inhibition)
[7]
  percent inhibition of tumor growth: ++ (51-75% Inhibition)
[1]
  Ki: 50 to 500 nM
SW 620 Human Colon
  percent inhibition of tumor growth: ++ (51-75% Inhibition)
[2]
  Ki: 0.5 to 5 nM
A549 Human Lung
  percent inhibition of tumor growth: ++++ (>100% Inhibition (Tumor Regression))
[3]
  Ki: 0.5 to 5 nM
[4]
  Ki: 50 to 500 nM
Colo 205 Human Colon
  percent inhibition of tumor growth: ++ (51-75% Inhibition)

## C[C@@H]([C@@H](CCCc1ccc(Cl)cc1)C(=O)N[C@H](C(=O)NCc1ccccn1)C(C)(C)C)N(O)C=O [Example 20, (2R,3S)-3-(Formylhydroxyamino)-2-(3-(4-chlorophenyl)-1-propyl)-butanoic Acid [(1S)-2,2-Dimethyl-(1-(2-pyridylmethyl)carbamoyl)-1-propyl]amide]
stromelysin-1 (MMP-3)
  Ki: 50 to 500 nM
[1]; [8]
  Ki: > 500 nM
[2]
  Ki: 0.5 to 5 nM
[3]
  Ki: 0.001 to 0.5 nM
[4]
  Ki: 50 to 500 nM

## C[C@@H]([C@@H](CCCc1ccc(Cl)cc1)C(=O)N[C@H](C(=O)NCCCN1CCOCC1)C(C)(C)C)N(O)C=O [Example 24, (2R,3S)-3-(Formylhydroxyamino)-2-(3-(4-chlorophenyl)-1-propyl)-butanoic Acid[(1S)-2,2-Dimethyl-(1-(3-(4-morpholino)-1-propyl)carbamoyl)-1-propyl]amide]
stromelysin-1 (MMP-3)
  Ki: 5 to 50 nM
[1]; [8]
  Ki: 50 to 500 nM
[2]
  Ki: 0.5 to 5 nM
[3]
  Ki: 0.001 to 0.5 nM
[4]
  Ki: 50 to 500 nM

## CC(C)[C@@H]([C@@H](CCCc1ccc(Cl)cc1)C(=O)N[C@H](C(=O)NCc1cccnc1)C(C)(C)C)N(O)C=O [Example 9]
stromelysin-1 (MMP-3)
  Ki: 5 to 50 nM
[1]; [8]
  Ki: 50 to 500 nM
[2]
  Ki: 0.5 to 5 nM
[3]
  Ki: 0.001 to 0.5 nM
[4]
  Ki: 50 to 500 nM

## CNC(=O)[C@@H](NC(=O)[C@H](CCCc1ccc(C)cc1)[C@H](C)N(O)C=O)C(C)(C)C [Example 52, (2R,3S)-3-(Formylhydroxyamino)-2-(3-(4-methylphenyl)-1-propyl)butanoic Acid [(1S)-2,2-Dimethyl-(1-methylcarbamoyl)-1-propyl]amide]
stromelysin-1 (MMP-3)
  Ki: 5 to 50 nM
[1]; [8]
  Ki: 50 to 500 nM
[2]
  Ki: 0.5 to 5 nM
[3]
  Ki: 0.5 to 5 nM
[4]
  Ki: 50 to 500 nM

Reference: US6172064A, “Formamides as therapeutic agents” (Glaxo Wellcome Inc., priority 1999, dated 2001)
